Measured values: article PMC8280112, “Substrate reduction therapy for Krabbe disease and metachromatic leukodystrophy using a novel ceramide galactosyltransferase inhibitor” (Scientific Reports, 2021)

Tests used:
Twitcher mice [1] = test: Twitcher mouse survival; format: in vivo; conditions: for median survival: IP three times per week
Experimental: Mice heterozygous for the Twitcher mutation on the congenic C57BL/6 background were originally purchased from The Jackson Laboratories (stock #000845). Homozygous GALC −/− animals were generated from heterozygous mating. Genotypes were determined on PND1 by PCR as previously described[43],[44]. Animals that died prior to weaning on PND28 were excluded from the study unless otherwise noted. Animals were euthanized when they became moribund as defined by any of the following: losing 25% of their maximal body weight, ataxia severe enough to impair ability to eat or drink, or lack of response to tactile stimulus. Animals used for tissue collection were euthanized by anesthetic overdose and perfused transcardially with PBS for three min. Animals for lifespan analysis were euthanized using CO2 compressed gas delivered at 10–30% chamber volume displacement per min. […] Tissues were harvested and flash frozen in liquid nitrogen.

[2] = biological target: T1, Recombinant human glucosylceramidase (GBA1) (Homo sapiens, UniProt P04062); test: Beta-glucocerebrosidase assay; format: biochemical
T1 construct: purchased R&D Systems
T1 sequence (P04062 40-536): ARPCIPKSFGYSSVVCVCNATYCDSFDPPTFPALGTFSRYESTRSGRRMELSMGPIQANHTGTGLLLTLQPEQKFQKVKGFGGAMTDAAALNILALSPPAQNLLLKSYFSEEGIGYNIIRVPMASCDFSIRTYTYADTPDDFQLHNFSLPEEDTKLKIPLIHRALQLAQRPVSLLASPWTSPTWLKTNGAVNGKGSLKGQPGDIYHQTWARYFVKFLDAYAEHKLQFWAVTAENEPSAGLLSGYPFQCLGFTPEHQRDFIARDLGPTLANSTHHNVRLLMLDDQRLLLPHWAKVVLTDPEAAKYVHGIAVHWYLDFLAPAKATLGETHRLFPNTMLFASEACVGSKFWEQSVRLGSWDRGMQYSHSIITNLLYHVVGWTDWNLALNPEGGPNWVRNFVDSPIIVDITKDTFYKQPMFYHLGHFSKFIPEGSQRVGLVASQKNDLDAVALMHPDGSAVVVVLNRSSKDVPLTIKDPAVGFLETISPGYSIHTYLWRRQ

Twitcher mice [3] = test: Twitcher mouse brain immunostaining and cytokine analysis; format: in vivo; conditions: 0.15 mg/kg IP three times per week, PND3 to PND28
Experimental: Five sections from a one in four series of sagittal brain sections from each mouse were stained on slides using a modified immunofluorescence protocol for the following antibodies—astrocytes (rabbit anti-GFAP, 1:1000, DAKO Z0334), microglia (rat anti-mouse CD68, 1:400, Bio-Rad MCA1957), and myelin basic protein (MBP) (rat anti-MBP, 1:500, Merck Millipore MAB386). Briefly, 40 µm sagittal sections were mounted on Superfrost Plus slides (Fisher Scientific), air-dried for 30 min, and blocked in 15% normal goat serum solution (Vector Labs, S-1000) in 2% TBS-T (1 × Tris Buffered Saline, pH 7.6 with 2% Triton-X100, Fisher Scientific) for 1 h. Slides were then incubated in primary antibody in 10% serum solution in 2% TBS-T for 2 h. Slides were washed three times in 1×TBS and incubated in fluorescent Alexa-Fluor labelled IgG secondary antibodies (Alexa-Fluor goat anti-rabbit 488, Invitrogen A-11008 and goat anti-rat 546, Invitrogen A-11081) in 10% serum solution in 2% TBS-T for 2 h, washed three times in 1×TBS, and incubated in a 1 × solution of TrueBlack lipofuscin autofluorescence quencher (Biotium, Fremont, CA, #23,007) in 70% ethanol for 2 min before rinsing in 1×TBS. Slides were coverslipped in fluoromount-G mounting medium with DAPI (Southern Biotech). To analyze the glial activation (GFAP-positive astrocytes + CD68-positive microglia) as well as MBP staining of punctate bodies in the cerebellar white matter, a semiautomated thresholding image analysis method was used with Image-Pro Premier software (Media Cybernetics). Briefly, this involved the collection of slide-scanned images at 5 × magnification for a one in four series of 3 sections per animal followed by demarcation of all regions (in this case the white matter of the cerebellum) of interest while maintaining the lamp intensity, video camera setup, and calibration constant throughout image capturing. Images were subsequently analyzed using Image-Pro Premier using an appropriate threshold that selected the foreground immunoreactivity above background. This threshold was then applied as a constant to all subsequent images analyzed per batch of animals and reagent used to determine the specific area of immunoreactivity for each antigen. Image densitometry for the average pixel luminance data was also gathered for MBP staining of the cerebellar white matter due to the higher density of staining. Slide-scanned images at 5 × magnification were collected for a one in forty-eight series of sections per animal followed by collecting the mean luminance data across all pixels from the regions of interest delineated using Image-Pro Premier.
Cytokine/chemokine analyses were performed on the brains from the same animals used for immunofluorescent imaging. […]

[4] = biological target: T2, Cerebroside sulfotransferase (CST) (Homo sapiens, UniProt Q99999); test: Cerebroside sulfotransferase assay; format: biochemical; conditions: lysate of CHO cells expressing GAL3ST1
T2 construct: made in house; host or cells: CHO cells stably expressing GAL3ST1 cDNA; MPER lysate
T2 sequence (Q99999 1-423): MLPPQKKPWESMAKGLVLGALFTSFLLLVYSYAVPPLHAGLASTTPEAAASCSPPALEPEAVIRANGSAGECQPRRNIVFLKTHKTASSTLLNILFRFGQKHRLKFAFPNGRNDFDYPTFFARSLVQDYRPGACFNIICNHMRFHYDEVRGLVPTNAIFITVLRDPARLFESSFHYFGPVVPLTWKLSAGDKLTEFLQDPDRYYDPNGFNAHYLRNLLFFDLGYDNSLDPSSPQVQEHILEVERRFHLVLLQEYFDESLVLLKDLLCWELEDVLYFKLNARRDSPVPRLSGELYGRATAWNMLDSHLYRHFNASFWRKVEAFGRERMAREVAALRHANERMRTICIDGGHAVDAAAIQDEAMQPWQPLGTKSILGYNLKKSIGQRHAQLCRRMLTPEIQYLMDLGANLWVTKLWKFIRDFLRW
Experimental: A 50 µL reaction consisting of 4 µg MPER lysate prepared from CHO cells stably expressing GAL3ST1 cDNA construct (made by BioMarin), 3 µM N-dodecanoyl-NBD-galactosylceramide […] 10 µM PAPS (Sigma) added as substrate (in DMSO/Tween 80), reaction buffer (100 mM Tris/HCl (pH 7.0), 2.5 mM ATP, 20 mM MgCl2), and test compound. The reaction was incubated at 37 ℃ for 2 h then stopped with 100 µL of 3:1 methanol:acetonitrile (containing 500 nM NBD-C6-OH ceramide as an IS). After 1 h shaking, 150 µL 1:2 H2O:ACN was added, mixed, and centrifuged 4000 rpm for 30 min at RT. Supernatant was transferred for LC–MS analysis using the same conditions used for the CGT cellular assay.

wild-type mice = test: Low dose treatment of wild-type mice PND3 to PND70: vacuolation; format: in vivo, mouse; conditions: PND3 to PND70, 0.15 mg/kg
[5] = biological target: T3, Recombinant human galactosylceramidase (GALC) (Homo sapiens, UniProt P54803); test: Galactosylceramidase assay; format: biochemical
T3 construct: purchased R&D Systems
T3 sequence (P54803 43-685): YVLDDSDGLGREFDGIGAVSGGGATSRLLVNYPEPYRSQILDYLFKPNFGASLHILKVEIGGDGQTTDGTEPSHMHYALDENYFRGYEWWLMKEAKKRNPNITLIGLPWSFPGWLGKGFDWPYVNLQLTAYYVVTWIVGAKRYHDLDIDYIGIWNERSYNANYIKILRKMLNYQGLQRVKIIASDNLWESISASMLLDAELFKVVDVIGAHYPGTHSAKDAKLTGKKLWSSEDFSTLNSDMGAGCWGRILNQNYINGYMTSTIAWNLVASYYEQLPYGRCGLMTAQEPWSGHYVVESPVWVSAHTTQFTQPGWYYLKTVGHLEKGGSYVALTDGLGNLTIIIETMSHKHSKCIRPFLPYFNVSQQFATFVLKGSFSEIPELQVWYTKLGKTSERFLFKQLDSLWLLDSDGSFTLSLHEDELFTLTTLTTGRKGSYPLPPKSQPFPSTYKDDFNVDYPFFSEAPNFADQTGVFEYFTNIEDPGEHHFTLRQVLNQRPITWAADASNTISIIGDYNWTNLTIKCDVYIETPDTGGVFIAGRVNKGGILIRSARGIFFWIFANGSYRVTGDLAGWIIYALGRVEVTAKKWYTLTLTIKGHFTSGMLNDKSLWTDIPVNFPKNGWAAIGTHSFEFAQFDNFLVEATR
From the text: Recombinant human galactosylceramidase (R&D Systems) activity was monitored using the artificial fluorescent substrate 4-methylumbelliferyl-β-D-galactopyranoside (Sigma) using the assay conditions described on the enzyme product datasheet.

Structure (SMILES): C[C@H]1N(c2ccc(Br)cc2)C(=O)N(c2ccc(Br)cc2)C1(O)c1cccc(OC(F)(F)F)c1 (some centres unmarked) [S202]
- median survival (Twitcher mice [1]; PND3 start, 0.15 mg/kg): 60 days
- median survival (Twitcher mice [1]; PND15 start, 5.0 mg/kg): ~ 63 days
- effect on lifespan (Twitcher mice [1]; PND3 start, highest dose tested (1.5 mg/kg)): reduced lifespan
- IC50 [2]: > 50 µM
- CD68-positive macrophages in brain sections (Twitcher mice [3]): trend toward reduction
- GROA level in brain homogenates (Twitcher mice [3]): reduced the levels
- MCP-1 level in brain homogenates (Twitcher mice [3]): reduced the levels
- marker of astrocytosis (GFAP) in brain sections (Twitcher mice [3]): trend toward reduction
- IC50 [4]: > 50 µM
- vacuolation in brain, spine and sciatic nerve (wild-type mice): vacuolation was observed in a similar pattern, but was much less severe
- IC50 [5]: > 50 µM
